Patent publication US20240374692A1, “A NOVEL ACYLATED INSULIN ANALOG” (SUNSHINE LAKE PHARMA CO., LTD., priority 2021, published 2024)
Where two headings read alike, the source gives them in different places.

Tests used:
[1] = rat, in vivo, sc, 10 nmol/kg
insulin receptor B = biological target: T1, insulin receptor B (Homo sapiens, UniProt P06213); assay: Insulin receptor B autophosphorylation in transfected cells (Cisbio Phospho-IR beta Tyr1150/1151 kit); assay type: cell-based; details: for Relative HI activity: relative to human insulin; for Relative 0% HSA activity: 1.5% HSA relative to 0% HSA
T1 construct: expressed in transfected cells
T1 sequence (P06213 28-758 limits assumed): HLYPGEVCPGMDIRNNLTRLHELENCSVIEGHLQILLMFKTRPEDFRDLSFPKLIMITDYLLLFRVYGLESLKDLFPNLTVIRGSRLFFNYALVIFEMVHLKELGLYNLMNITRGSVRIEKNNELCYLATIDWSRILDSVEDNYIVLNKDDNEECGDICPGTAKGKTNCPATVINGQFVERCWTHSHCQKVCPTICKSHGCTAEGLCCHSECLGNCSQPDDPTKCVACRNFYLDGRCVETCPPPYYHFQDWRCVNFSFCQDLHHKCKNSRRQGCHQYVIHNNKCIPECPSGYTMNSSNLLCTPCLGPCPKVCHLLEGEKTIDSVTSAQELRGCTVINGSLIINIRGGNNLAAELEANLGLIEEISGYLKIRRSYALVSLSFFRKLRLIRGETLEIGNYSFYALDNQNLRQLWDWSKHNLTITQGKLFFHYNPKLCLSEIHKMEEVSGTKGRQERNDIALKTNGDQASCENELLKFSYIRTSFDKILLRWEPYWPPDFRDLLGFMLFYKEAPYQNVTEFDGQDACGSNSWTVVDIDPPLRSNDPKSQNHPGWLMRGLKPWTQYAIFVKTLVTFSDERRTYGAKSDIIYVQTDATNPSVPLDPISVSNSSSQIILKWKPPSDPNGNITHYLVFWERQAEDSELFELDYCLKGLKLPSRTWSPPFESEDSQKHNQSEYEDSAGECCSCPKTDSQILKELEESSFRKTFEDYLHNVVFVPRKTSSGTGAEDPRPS
T1 sequence (P06213 763-1382 partner limits assumed): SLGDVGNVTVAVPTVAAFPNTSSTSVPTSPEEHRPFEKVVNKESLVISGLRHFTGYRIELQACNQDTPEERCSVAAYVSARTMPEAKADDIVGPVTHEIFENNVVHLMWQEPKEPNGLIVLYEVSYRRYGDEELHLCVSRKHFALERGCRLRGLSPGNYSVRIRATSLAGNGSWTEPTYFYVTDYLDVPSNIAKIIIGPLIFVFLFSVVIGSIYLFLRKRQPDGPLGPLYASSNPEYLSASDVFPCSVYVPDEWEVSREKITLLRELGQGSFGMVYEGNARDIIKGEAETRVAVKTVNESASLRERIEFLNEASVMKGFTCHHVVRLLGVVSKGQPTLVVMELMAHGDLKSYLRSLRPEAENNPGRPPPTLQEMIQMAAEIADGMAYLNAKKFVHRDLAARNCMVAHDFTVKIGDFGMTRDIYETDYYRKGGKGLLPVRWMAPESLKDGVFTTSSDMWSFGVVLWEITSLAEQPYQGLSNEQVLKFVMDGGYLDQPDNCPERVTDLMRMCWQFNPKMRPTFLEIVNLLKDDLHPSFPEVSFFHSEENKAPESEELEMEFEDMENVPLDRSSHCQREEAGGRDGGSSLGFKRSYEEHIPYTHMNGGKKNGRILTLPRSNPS
Protocol: The phosphorylation level of insulin receptor B was detected by Cisbio's Phospho-IR beta (Tyr1150/1151) kit method to evaluate the biological activity of insulin. The cells were seeded into a 96-well plate overnight, and after the serum in the medium was removed, 40 μl of serum-free medium was added to culture for about 4 h. Then a dilution series of insulin derivatives were prepared with blank solution (0.6% casein, 0.06 mg/mL EDTA, 1×DPBS) and incubated with cells in the 96-well plate for 5 min in a CO2 incubator (37° C., 5% CO2). The liquid in the 96-well plate was poured off, 100 µL of a mixture of lysis buffer (2% Triton X-100, 150 mM NaCl, 50 mM HEPES, pH=7) and inhibitor (Blocking Reagent in the kit) was added to lyse the cells, then the plate was shaken at 350 rpm for 30 min. Relative activity (in percent (%)) was assessed by measuring insulin receptor phosphorylation levels in the supernatant after cell lysis and fitting a curve to the data using nonlinear regression in Graphpad Prism 5 software. Related assays were also used, in which the blank solution also contained 1.5% HSA to simulate physiological conditions. Changes in the phosphorylation levels of the insulin-activated insulin receptors of the invention were detected as an indirect reflection of the albumin binding activity.

[2] = tested on: STZ-induced type I diabetes mellitus (T1DM) C57BL/6 mice; assay: Hypoglycemic effect, repeated administration (three times) to STZ-induced T1DM C57BL/6 mice (Example 6); assay type: in vivo; set-up: key to random blood glucose: blood glucose in mmol/L; details: Mean ± SEM, n = 7
Protocol: SPF grade C57BL/6 mice were reared in a suitable rearing box in a barrier environment, with a rearing temperature of 20-26° C., a humidity of 40-70%, a time between day and night of 12 h/12 h, and the mice had free access to standard food and autoclaved sterilization water. After the 3-day quarantine period and the 2-day acclimation period, the mice were fasted for 12 h, and the mice were injected intraperitoneally with streptozotocin solution (STZ, 13 mg/mL, in citrate buffer) at 130 mg/kg. 3 Days and 7 days after administration of streptozotocin, random blood glucose and fasting blood glucose were detected, and the random blood glucose value above 25 mmol/L and fasting blood glucose value above 11.1 mmol/L were selected as T1DM model mice for follow-up experiments. On the day before administration, random blood glucose was monitored and mice were weighed. Mice were divided into 6 groups according to random blood glucose and body weight.
Subcutaneous administration (S.C.) was used to administer the corresponding vehicle or drug, once every 4-5 days, for a total of 3 administrations. During the experiment, the animals were allowed to eat and drink water freely. The random blood glucose before the first administration, and 0.25, 0.5, 1, 2, 4, 6, 8, 10, 24, 48, 72, and 96 h after administration were assessed, as well as the random blood glucose before the second and third administration, and 0.5, 1, 2, 6, 24, 48, 72, 96 and 120 h after administration.
(§1) All raw data were entered into Excel files and expressed as Mean±SEM. Statistical analysis of data was performed using Graphpad Prism 7.0 software, one-way or two-way ANOVA comparison method, and P<0.05 was used as the criterion for significant differences.

normal C57BL/6 mice = assay: Hypoglycemic effect, single subcutaneous administration to normal C57BL/6 mice; assay type: in vivo; set-up: blood glucose: unit not given here; details: for blood glucose compared with the control group: 1 h after single S.C. administration; for blood glucose: Mean ± SEM, n = 6
Protocol: SPF grade C57BL/6 mice were reared in a suitable rearing box in a barrier environment, with a rearing temperature of 20-26° C., a humidity of 40-70%, a time between day and night of 12 h/12 h, and the mice had free access to standard food and autoclaved sterilization water. After a 3-day quarantine period and a 2-day acclimation period, random blood glucose was measured and mice were weighed. Mice were divided into 6 groups according to random blood glucose and body weight.
Single subcutaneous administration (S.C.) was used to administer the corresponding vehicle or drug. The control group was administered the vehicle PBS without fasting during the whole process, and the animals were allowed to eat and drink freely. Random blood glucose values of C57 mice were measured before administration and at 0.25, 0.5, 1, 2, 4, 6, 8, 10, 24, 48, 54, 72 and 96 hours after administration.
as §1

[3] = dog, in vivo, iv, 10 nmol/kg
Protocol: Two beagle dogs, one in each group, a double-cycle crossover design was used, with a washout period of 1 week, and a single dose of 10 nmol/kg of Icodec or Insulin-a10 was administered to the lateral small saphenous vein of the hind limb in each cycle, the blood was collected and plasma was centrifuged at 0.083, 0.25, 0.5, 1, 2, 6, 8, 24, 30, 48, 72 and 96 h after administration, the concentration of Icodec or Insulin-a10 in the plasma was detected.

[4] = mouse, in vivo, sc, 10 nmol/kg
[5] = rat, in vivo, iv, 10 nmol/kg
[6] = tested on: STZ-induced type I diabetes mellitus (T1DM) C57BL/6 mice; assay: Hypoglycemic effect, repeated administration (four times) to STZ-induced T1DM C57BL/6 mice (Example 5); assay type: in vivo; set-up: key to random blood glucose: random blood glucose in mmol/L, Mean±SEM; details: for random blood glucose: 1400 nmol/Kg S.C. four times
Protocol: SPF grade C57BL/6 mice were reared in a suitable rearing box in a barrier environment, with a rearing temperature of 20-26° C., a humidity of 40-70%, a time between day and night of 12 h/12 h, and the mice had free access to standard food and autoclaved sterilization water. After a 3-day quarantine period and a 2-day acclimation period, the mice were fasted for 12 h, and the mice were injected intraperitoneally with streptozotocin solution (STZ, 13 mg/mL, in citrate buffer) or citrate buffer at 130 mg/kg (control group). 3 Days and 7 days after administration of streptozotocin, random blood glucose and fasting blood glucose were detected, and the random blood glucose value above 25 mmol/L and fasting blood glucose value above 11.1 mmol/L were selected as T1DM model mice for follow-up experiments. On the day before administration, random blood glucose was monitored and mice were weighed. Mice were divided into 4 groups according to random blood glucose and body weight.
Subcutaneous administration (S.C.) was used to administer the corresponding vehicle or drug, once every 4-5 days, for a total of 4 administrations. During the experiment, the animals were allowed to eat and drink water freely. The random blood glucose before the first administration, and 0.25, 0.5, 1, 2, 4, 6, 8, 10, 24, 48, 72, and 96 h after administration were assessed, as well as the random blood glucose before the second, third and fourth administration, and 1, 2, 4, 6, 8, 24, 48, 72, 96 and 120 h after administration.
as §1

[7] = single S.C., Degludec 200 nmol/Kg, others 1400 nmol/Kg

## A14E, B16H, B25H, B29K (N^ε-eicosandioyl-gGlu-2xOEG), DesB30 human insulin analog [Icodec, reference compound]
[1]
  AUClast: 6560 ng·h/mL
  MRTINF_obs: 30.5 h
  T1/2: 16.7 h
Insulin receptor B; 0% HSA
  EC50: 77.2 nM
  Relative HI activity: 1.60%
Insulin receptor B; 1.5% HSA
  EC50: 1480 nM
  Relative HI activity: 0.17%
Insulin receptor B
  Relative 0% HSA activity: 5.23%
[2]; 250 nmol/Kg S.C. three times, Day 0 (1st)
  random blood glucose: 32.5 ± 2.2
[2]; 250 nmol/Kg S.C. three times, Day 1
  random blood glucose: 25.7 ± 4.2
[2]; 250 nmol/Kg S.C. three times, Day 4 (2nd)
  random blood glucose: 31.3 ± 2.6
[2]; 250 nmol/Kg S.C. three times, Day 5
  random blood glucose: 25.1 ± 3.2
[2]; 250 nmol/Kg S.C. three times, Day 9 (3rd)
  random blood glucose: 31.8 ± 2.2
[2]; 250 nmol/Kg S.C. three times, Day 10
  random blood glucose: 17.2 ± 6.8
[2]; 250 nmol/Kg S.C. three times, Day 14
  random blood glucose: 30.6 ± 4.6
[2]; 500 nmol/Kg S.C. three times, Day 0 (1st)
  random blood glucose: 32.5 ± 1.6
[2]; 500 nmol/Kg S.C. three times, Day 1
  random blood glucose: 20.3 ± 6.3
[2]; 500 nmol/Kg S.C. three times, Day 4 (2nd)
  random blood glucose: 30.6 ± 2.6
[2]; 500 nmol/Kg S.C. three times, Day 5
  random blood glucose: 19.5 ± 5.8
[2]; 500 nmol/Kg S.C. three times, Day 9 (3rd)
  random blood glucose: 27.0 ± 7.1
[2]; 500 nmol/Kg S.C. three times, Day 10
  random blood glucose: 15.9 ± 6.0
[2]; 500 nmol/Kg S.C. three times, Day 14
  random blood glucose: 33.0 ± 0.9
[2]; 1000 nmol/Kg S.C. three times, Day 0 (1st)
  random blood glucose: 30.8 ± 2.9
[2]; 1000 nmol/Kg S.C. three times, Day 1
  random blood glucose: 20.4 ± 4.6
[2]; 1000 nmol/Kg S.C. three times, Day 4 (2nd)
  random blood glucose: 31.6 ± 2.1
[2]; 1000 nmol/Kg S.C. three times, Day 5
  random blood glucose: 12.8 ± 5.4
[2]; 1000 nmol/Kg S.C. three times, Day 9 (3rd)
  random blood glucose: 29.7 ± 3.7
[2]; 1000 nmol/Kg S.C. three times, Day 10
  random blood glucose: 10.1 ± 6.4
[2]; 1000 nmol/Kg S.C. three times, Day 14
  random blood glucose: 27.7 ± 4.6
Normal C57BL/6 mice
  blood glucose compared with the control group: decreased significantly
Normal C57BL/6 mice; [7]
  effective blood glucose control time: 96 h
  time after administration at which blood glucose reached the lowest level: 48 h
[3]
  AUClast: 35700 ± 120 ng·h/mL
  T1/2: 35.7 ± 6.7 h

## A14E, B16E, B25H, B29K (N^ε-eicosanedioyl-gGlu-2xOEG), DesB30 human insulin analog [Insulin-a1, reference compound]
[1]
  AUClast: 10300 ng·h/mL
  MRTINF_obs: 34.1 h
  T1/2: 21 h
Insulin receptor B; 0% HSA
  EC50: 230 nM
  Relative HI activity: 0.54%
Insulin receptor B; 1.5% HSA
  EC50: 5020 nM
  Relative HI activity: 0.05%
Insulin receptor B
  Relative 0% HSA activity: 4.58%
[4]
  AUClast: 10000 ng·h/mL
  T1/2: 14.3 h
Normal C57BL/6 mice; 0 h (before administration), single S.C., Degludec 200 nmol/Kg, others 1400 nmol/Kg
  blood glucose: 7.8 ± 1.1
Normal C57BL/6 mice; 0.25 h after single S.C., Degludec 200 nmol/Kg, others 1400 nmol/Kg
  blood glucose: 8.8 ± 1.4
Normal C57BL/6 mice; 0.5 h after single S.C., Degludec 200 nmol/Kg, others 1400 nmol/Kg
  blood glucose: 6.6 ± 0.7
Normal C57BL/6 mice
  blood glucose compared with the control group: decreased significantly
Normal C57BL/6 mice; 1 h after single S.C., Degludec 200 nmol/Kg, others 1400 nmol/Kg
  blood glucose: 5.6 ± 0.7
Normal C57BL/6 mice; 2 h after single S.C., Degludec 200 nmol/Kg, others 1400 nmol/Kg
  blood glucose: 4.4 ± 0.7
Normal C57BL/6 mice; 4 h after single S.C., Degludec 200 nmol/Kg, others 1400 nmol/Kg
  blood glucose: 3.6 ± 0.7
Normal C57BL/6 mice; 6 h after single S.C., Degludec 200 nmol/Kg, others 1400 nmol/Kg
  blood glucose: 3.8 ± 0.4
Normal C57BL/6 mice; 8 h after single S.C., Degludec 200 nmol/Kg, others 1400 nmol/Kg
  blood glucose: 3.6 ± 0.7
Normal C57BL/6 mice; 10 h after single S.C., Degludec 200 nmol/Kg, others 1400 nmol/Kg
  blood glucose: 3.4 ± 0.7
Normal C57BL/6 mice; 24 h after single S.C., Degludec 200 nmol/Kg, others 1400 nmol/Kg
  blood glucose: 2.9 ± 0.7
Normal C57BL/6 mice; 48 h after single S.C., Degludec 200 nmol/Kg, others 1400 nmol/Kg
  blood glucose: 4.9 ± 1.5
Normal C57BL/6 mice; 72 h after single S.C., Degludec 200 nmol/Kg, others 1400 nmol/Kg
  blood glucose: 7.3 ± 1.3
Normal C57BL/6 mice; 96 h after single S.C., Degludec 200 nmol/Kg, others 1400 nmol/Kg
  blood glucose: 7.8 ± 0.6
Normal C57BL/6 mice; [7]
  effective blood glucose control time: 72 h
  time after administration at which blood glucose reached the lowest level: 24 h
  time after administration at which blood glucose returned to normal: 48 h
[5]
  AUClast: 7550 ng·h/mL
  T1/2: 15.3 ± 4.8 h
[6]; 1400 nmol/Kg S.C., Insulin-a1 each administration, Insulin-a3 first and second administrations
  time after administration at which blood glucose reached the lowest level: 24 h
[6]; 1400 nmol/Kg S.C., after each administration
  time after administration at which blood glucose reached the normal level: 72 h
[6]; Day 0 (1st administration)
  random blood glucose: 33.3 ± 0.1
[6]; Day 1
  random blood glucose: 22.5 ± 9.6
[6]; Day 4 (2nd administration)
  random blood glucose: 31.1 ± 2.3
[6]; Day 5
  random blood glucose: 15.6 ± 6.6
[6]; Day 9 (3rd administration)
  random blood glucose: 28.4 ± 4.9
[6]; Day 10
  random blood glucose: 12.2 ± 7.9
[6]; Day 14 (4th administration)
  random blood glucose: 28.4 ± 5.9
[6]; Day 18
  random blood glucose: 26.2 ± 5.7
[6]; repeated administration, C57BL6 mice modeled by STZ
  time the effective glucose control effect can be maintained: 3 days/time
